Test results reported in ChEMBL document CHEMBL1201862, “PubChem BioAssay data set” (2004).
Active and inactive are the calls of the source.

Columns and labels:
[1] = biological target: T1, Fructose-bisphosphate aldolase (Mycobacterium tuberculosis, UniProt P9WQA3); experiment: Fluorescence-based biochemical high throughput dose response assay for inhibitors of the fructose-bisphosphate aldolase (FBA) of M. tuberculosis.; type: functional
T1 sequence (P9WQA3 whole entry): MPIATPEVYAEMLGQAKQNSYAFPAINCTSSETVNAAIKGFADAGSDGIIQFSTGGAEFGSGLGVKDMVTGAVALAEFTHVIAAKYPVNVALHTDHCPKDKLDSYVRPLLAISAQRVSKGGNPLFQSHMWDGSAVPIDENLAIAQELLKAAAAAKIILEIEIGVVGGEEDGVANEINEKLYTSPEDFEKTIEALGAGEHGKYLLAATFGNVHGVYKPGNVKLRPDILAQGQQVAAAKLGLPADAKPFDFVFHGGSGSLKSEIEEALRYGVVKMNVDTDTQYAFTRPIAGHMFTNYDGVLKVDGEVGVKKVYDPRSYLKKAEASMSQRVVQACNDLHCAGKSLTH

[2] = HPDE-C7 pancreatic duct cell viability loss – fluorescence, HTS (AID 430); type: functional, cell-based; conditions: Homo sapiens
[3] = NIH3T3 cell viability loss – ATP luminescence, mouse fibroblasts, counter-screen, dose response (AID 2010); type: functional, cell-based;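 further: cells exposed to compound for about 90 hours before reading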
[4] = Trypanosoma cruzi growth suppression in host cells – NIH3T3 host cells, beta-gal luminescence, confirmation (AID 2044); type: functional, cell-based;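 further: intracellular parasites grown in NIH/3T3 mouse fibroblasts as host cells; luminescent beta-galactosidase reporter signal from transgenic T. cruzi replicating inside host cells; inhibitors lower the luminescence signal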
[5] = viability loss of HPDE-C7K cells – cell-based, fluorescence, HTS, primary screen (AID 431); type: functional; conditions: Homo sapiens
[6] = viability loss in HepG2 hepatoma cells – cell-based, ATP luminescence, cherry-pick, activator set 2, cytotoxicity control, dose response (AID 1053143); type: functional
Major prion protein = Major prion protein (Homo sapiens, UniProt P04156); type: functional, cell-based
cells [7] = experiment: cells
[8] = HGIII-sPLA2 enzyme inhibition potency – biochemical, QFRET, IC50, dose response (AID 743457);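 further: green fluorescence rise as the enzyme cleaves BODIPY PC-A2 in liposomes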
[9] = biological target: Protein-tyrosine kinase 2-beta (Homo sapiens, UniProt Q14289);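 further: potency of inhibitors of PYK2 kinase phosphorylation of poly-GT substrate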
Estrogen receptor beta = Estrogen receptor beta (Homo sapiens, UniProt Q92731);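 further: recombinant ER-beta bound to coactivator SRC1 peptide in presence of estradiol agonist; inhibitors block coactivator peptide binding and lower the FRET signal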
cells [10] = type: functional, cell-based
[11] = biological target: T2, Nuclear receptor subfamily 0 group B member 1 (Homo sapiens, UniProt P51843); type: functional, cell-based;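 further: HEK293T cells transfected with SF-1 and DAX-1 plus StAR promoter luciferase reporter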
T2 sequence (P51843 whole entry): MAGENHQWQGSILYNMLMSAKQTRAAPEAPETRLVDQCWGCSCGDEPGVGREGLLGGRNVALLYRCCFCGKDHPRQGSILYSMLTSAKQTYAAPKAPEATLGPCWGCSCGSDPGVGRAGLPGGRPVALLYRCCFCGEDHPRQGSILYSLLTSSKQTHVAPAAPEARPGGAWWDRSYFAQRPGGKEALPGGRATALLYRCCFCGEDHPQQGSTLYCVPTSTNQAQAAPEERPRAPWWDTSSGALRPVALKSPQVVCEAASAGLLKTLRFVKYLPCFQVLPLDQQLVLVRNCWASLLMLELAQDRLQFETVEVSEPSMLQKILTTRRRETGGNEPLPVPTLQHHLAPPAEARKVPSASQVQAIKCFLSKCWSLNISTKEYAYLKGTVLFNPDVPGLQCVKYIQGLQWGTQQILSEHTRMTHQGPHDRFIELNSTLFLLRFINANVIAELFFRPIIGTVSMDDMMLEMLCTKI

cells [12] = type: functional, cell-based; remark: listed apart in the source
[13] = biological target: T3, Trace amine-associated receptor 1 (Homo sapiens, UniProt Q96RJ0); experiment: Fluorescence-based cell-based high throughput dose response assay to identify agonists of the human trace amine associated receptor 1 (TAAR1).; type: functional
T3 sequence (Q96RJ0 whole entry): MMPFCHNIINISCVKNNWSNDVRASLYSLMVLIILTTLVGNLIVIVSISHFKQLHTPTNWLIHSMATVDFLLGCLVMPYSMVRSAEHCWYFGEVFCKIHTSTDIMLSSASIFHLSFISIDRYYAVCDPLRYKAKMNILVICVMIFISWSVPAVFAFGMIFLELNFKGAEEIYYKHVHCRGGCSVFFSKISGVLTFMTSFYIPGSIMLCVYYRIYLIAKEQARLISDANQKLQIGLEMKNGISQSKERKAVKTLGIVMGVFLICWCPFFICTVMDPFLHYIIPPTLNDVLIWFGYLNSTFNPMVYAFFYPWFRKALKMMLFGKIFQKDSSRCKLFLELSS

[14] = biological target: T3, Trace amine-associated receptor 1; experiment: Counterscreen for agonists of the human trace amine associated receptor 1 (hTAAR1): Fluorescence-based cell-based high throughput dose response assay to identify hTAAR1 agonist that also desensitize TAAR1 receptor response.; type: functional
cells [15] = type: functional, cell-based; remark: listed apart in the source
[16] = P. falciparum Dd2 growth inhibitors, dose response, SYBR Green, cherry-picked samples (AID 1159567); type: functional, cell-based
[17] = toxicity to human hepatoma HepG2 cells – cell-based, cherry-picked samples, cytotoxicity control, dose response (AID 1159577); type: functional

Structure (SMILES): CCOc1ccc2oc(C(=O)OCC(=O)NC3CCCC3)c(C)c2c1
- IC50 [1]: 2.59 µM (active)

Structure (SMILES): c1ccc(N2CCN(c3nc(NCc4ccco4)c4ccccc4n3)CC2)cc1
- EC50 [2]: 11 µM (active)
- EC50 [3]: > 60 µM (not active)
- EC50 [4]: 2.3 µM (active)
- EC50 [5]: 10.8 µM (active)

Structure (SMILES): C(=C\c1ccco1)/c1nc2ccccc2[nH]1
- AC50 [6]: 26 µM (active)

Structure (SMILES): N#Cc1nc(-c2cccs2)oc1N1CCN(Cc2ccccc2)CC1
- IC50 [1]: 0.849 µM (active)

Structure (SMILES): CC(=O)N1c2ccc(S(=O)(=O)N3CCCC(C(=O)Nc4cc(C)cc(C)c4)C3)cc2CC1C (configuration not stated)
- IC50 (Major prion protein): 10.4 µM (inactive)
- IC50 (cells [7]): > 138 µM (inactive)

Structure (SMILES): CC1=CC(C)(C)N=C(S)N1c1cccc2ccccc12
- IC50 [8]: > 122 µM (inactive)

Structure (SMILES): CCc1ccc2nc(SCC(=O)N(CC)CC)c(C#N)cc2c1
- IC50 [9]: > 69.5 µM (not active)

Structure (SMILES): O=S(=O)(O)c1nc2ccccc2n1Cc1ccccc1
- IC50 (Estrogen receptor beta): > 50 µM (not active)

Structure (SMILES): COc1ccc(C(=O)COc2ccc(C)cc2NC(C)=O)cc1
- AC50 [6]: > 52 µM (inactive)

Structure (SMILES): O=C(NCC1(N2CCCCC2)CCCCC1)c1cccc(S(=O)(=O)Nc2ccc(F)cc2)c1
- IC50 (cells [10]): > 67.5 µM (inactive)
- IC50 [11]: > 67.5 µM (inactive)

Structure (SMILES): COc1cccc(C(=O)N[C@H](C(=O)N2CCC[C@H]2C(=O)NCCc2ccccc2Cl)c2ccccc2)c1
- EC50 (cells [12]): > 29.9 µM (inactive)
- EC50 [13]: 6.46 µM (active)
- IC50 [14]: 7.36 µM (active)
- IC50 (cells [15]): > 29.9 µM (inactive)

Structure (SMILES): N#C[C@@H]1[C@H](c2ccc(C#CCC3CCCC3)cc2)[C@H](CO)N1C(=O)c1ccccn1
- AC50 [16]: 3.37 µM (active)
- AC50 [17]: 26 µM (active)

Structure (SMILES): CCCNC(=O)N1CC2(CCN(S(=O)(=O)c3ccc(OC)cc3)CC2)c2c(n(C)c3cc(OC)ccc23)[C@@H]1CO
- AC50 [16]: 3.11 µM (active)
- AC50 [17]: > 39 µM (inactive)

Structure (SMILES): c1ccc(CN(CC2=NCCN2)c2ccccc2)cc1 [ANTAZOLINE PHOSPHATE]
- EC50 (cells [12]): > 29.9 µM (inactive)
- EC50 [13]: > 9.97 µM (active)
- IC50 [14]: > 29.9 µM (inactive)
- IC50 (cells [15]): > 29.9 µM (inactive)
